Patent EP4371563A1, “COMBINATIONS OF LAROTRECTINIB AND MODERATE CYP3A4 INDUCERS” (Bayer Consumer Care AG, priority 2022, dated 2024)

What was measured:
[1] = In silico model: simulated larotrectinib plasma exposure after a single oral dose with and without itraconazole or rifampicin (model verification against observed data); parameters: species or system human
Description: The effect of different CYP3A4 inhibitors and inducers on the pharmacokinetics of larotrectinib was evaluated using an in silico model. The following drugs were included in the study: The model was correlated by comparison of simulated and observed plasma concentrations in both healthy subjects and cancer patients for midazolam, testosterone, and several of the tested drugs, including larotrectinib alone, larotrectinib + intraconazole, larotrectinib + rifampicin. The following virtual trials were conducted: 12 healthy subjects (50% female) aged 20 to 55 years receiving larotrectinib (100 mg BID) for 14 days in the absence of itraconazole and coadminstered with itraconazole (tablets in fed state; 200 mg QD). A comparison was made between mean simulated and observed plasma concentrations of larotrectinib following a single oral dose of 100 mg larotrectinib in the absence of and co-administered with itraconazole on the 5th day of 7 days of dosing (200 mg QD). Simulated Cmax and AUC and corresponding ratios for larotrectinib are shown below. […] A comparison was made between mean simulated and observed plasma concentrations of larotrectinib following a single oral dose of 100 mg larotrectinib in the absence of and co-administered with rifampicin on the 10th day of 11 days of dosing (600 mg QD). Simulated Cmax and AUC and corresponding ratios for larotrectinib are shown below.

[2] = Observed larotrectinib plasma exposure after a single oral dose with and without itraconazole or rifampicin; type: in vivo, human; conditions: for AUC / Cmax: human, plasma, po
Description: A comparison was made between mean simulated and observed plasma concentrations of larotrectinib following a single oral dose of 100 mg larotrectinib in the absence of and co-administered with itraconazole on the 5th day of 7 days of dosing (200 mg QD). Simulated Cmax and AUC and corresponding ratios for larotrectinib are shown below. […] A comparison was made between mean simulated and observed plasma concentrations of larotrectinib following a single oral dose of 100 mg larotrectinib in the absence of and co-administered with rifampicin on the 10th day of 11 days of dosing (600 mg QD). Simulated Cmax and AUC and corresponding ratios for larotrectinib are shown below.

[3] = Observed larotrectinib exposure at 100 mg BID without CYP3A4 perpetrators; conditions: in vivo, 100 mg BID larotrectinib in the absence of any CYP3A4 perpetrators
Description: 100 mg BID larotrectinib was administered in the absence of any CYP3A4 perpetrators.

[4] = Observed, plus rifampicin 600 mg QD / control, single oral dose 100 mg larotrectinib, interval in brackets
[5] = coadministration of larotrectinib with rifampicin (600 mg QD)
[6] = 100 mg, Observed, Control: single oral dose 100 mg larotrectinib in absence of itraconazole, healthy subjects
[7] = 100 mg, Observed, Control: single oral dose 100 mg larotrectinib in absence of rifampicin
[8] = Observed, single oral dose 100 mg larotrectinib plus itraconazole 200 mg QD (5th day of 7 days), healthy subjects
[9] = Observed, single oral dose 100 mg larotrectinib plus rifampicin 600 mg QD (10th day of 11 days)

With O=C(Nc1cnn2ccc(N3CCC[C@@H]3c3cc(F)ccc3F)nc12)N1CC[C@H](O)C1 [larotrectinib] the “P/O Ratio AUC” value ([1]; predicted/observed of the AUC ratio plus itraconazole / control) was 1.04, the “P/O Ratio AUC” value ([1]; predicted/observed of the AUC ratio plus rifampicin / control) was 0.79 and the “P/O Ratio Cmax” value ([1]; predicted/observed of the Cmax ratio plus itraconazole / control) was 0.79. For the same molecule, the “P/O Ratio Cmax” value ([1]; predicted/observed of the Cmax ratio plus rifampicin / control) was 0.76, the “Ratio AUC” value [2, 4] was 0.19 (0.16, 0.24) and the “Ratio Cmax” value [2, 4] was 0.29 (0.23, 0.37). For the same molecule, the “observed reduction in exposure of larotrectinib, AUC” value [2, 5] was 81%, the “observed reduction in exposure of larotrectinib, Cmax” value [2, 5] was 71% and the AUC [2, 6] was 1280 ng·h/mL. It also gave a Cmax [2, 6] of 497 ng/mL, an AUC [2, 7] of 1340 ng·h/mL and a Cmax [2, 7] of 435 ng/mL. The AUC [2, 8] was 5520 ng·h/mL, the Cmax [2, 8] was 1400 ng/mL and the AUC [2, 9] was 259 ng·h/mL. The Cmax [2, 9] was 133 ng/mL, the AUC [3] was 1590 ng·h/mL and the Cmax [3] was 624 ng/mL.
